This note sets out measurements from patent publication US9861694B2, “EGFR antagonist for the treatment of heart disease” (priority 2010, dated 2018).

The subject of assay [1] is adult cardiac myofibroblasts. Kind of assay: Collagen I synthesis by PINP ELISA in conditioned media of treated cardiac myofibroblasts. Format: cell-based, mice. Particulars: for decrease in collagen I synthesis: 10 ng/ml EGF, 24 hours. How it is done: (§1) Cardiac myofibroblast cultures were prepared from ventricles of WT and TIMP-3^−/− mice as previously described. Briefly, hearts were aseptically isolated from adult mice. The ventricles were minced and digested with collagenase and disapase. Fibroblasts subcultured for 2 generations were seeded on culture plates and used for all in vitro experiments. After 2 passages virtually all fibroblasts differentiate into myofibroblasts. Purity of myofibroblasts was verified by FSP-1 and α-smooth muscle actin double staining. Cell proliferation was assessed by Ki67 and FSP-1 double staining.
(§2) To determine the effect of EGF and TGF-β1 on collagen expression and synthesis, adult cardiac myofibroblasts subcultured for 2 generations were placed in low serum (5% FBS) for 24 hours and subsequently treated with either recombinant mouse EGF (rEGF, R&D […], CA) in DMEM containing 5% FBS and cultured for another 24 hours or with TGF-β1 (Millipore, Mass.) and cultured for another 48 hours. Cells were then harvested and experiments were conducted.
Collagen I synthesis was assessed in the LV myocardium and in conditioned media collected for cultured myofibroblasts using a rat/mouse procollagen I N-terminal peptide (PINP) ELISA kit (IDS-Medicorp, Quebec) according to the manufacturer's instructions. The LV tissues of sham mice and the infarct regions of WT and TIMP-3^−/− mice 5 days post-MI were homogenized in PBS and centrifuged. The supernatant was then collected and protein concentrations were measured. For tissues, 25 μg of total protein was used, while for media, 10 μL of conditioned media was used in the assay. Measurements of absorbances were made using SpectraMax M5 microplate reader at a wavelength of 450 nm. Values are expressed as either ng collagen per mg myocardial tissue or ng/ml conditioned media.
(In an ELISA, binding on a coated surface is turned into a signal by an enzyme label.)

Assay [2] has as its system adult cardiac myofibroblasts. Kind of assay: Collagen I/III and TGF-β1 expression by real-time RT-PCR in treated cardiac myofibroblasts. Format: cell-based, mice. Particulars: for decrease in TGF-β1 levels / decrease in collagen I expression / decrease in collagen III expression: 10 ng/ml EGF, 24 hours. How it is done: as §1, §2
Total RNA was extracted from adult cultured myofibroblasts as well as LV tissue of WT and TIMP-3^−/− sham and the infarct region of MI mice 5 days post-surgery using Trizol as previously described. cDNA was synthesized using M-MLV reverse transcriptase (Invitrogen, ON). Real-time PCR was conducted using SYBR Green PCR Master Mix as per manufacturer's instructions (Applied Biological Materials, BC). 28S rRNA (house keeping gene) was used as a loading control since previous studies have shown that it is a reliable loading control especially for use in experiments with hypoxia and MI [13].
On the technique in general: Real-time PCR tracks product formation cycle by cycle.

[3] abbreviates: 10 ng/ml TGF-β1 (high concentration), 48 hours, P<0.01.

In the case of “TGF-β1: human recombinant transforming growth factor-beta 1 (Millipore) used to treat cardiac myofibroblasts”, the “collagen I synthesis” value in assay [1] (setting [3]) was “further increase”. For the same substance, the “collagen I and III expression” value in assay [2] (1 ng/ml TGF-β1 (low concentration), 48 hours, P<0.05) is given as “significant increase”. Further, in assay [2] (setting [3]), the “collagen I expression” value is reported as “further increase”. The “effect on collagen III compared to controls” value in assay [2] (10 ng/ml TGF-β1 (high concentration), 48 hours, P=n.s.) is listed as “no effect”.
As to “EGF: recombinant mouse epidermal growth factor (rEGF) used to treat cardiac myofibroblasts”, in assay [1] (TIMP-3−/− myofibroblasts), the “decrease in collagen I synthesis” value amounted to 39%. Moreover, in assay [1] (WT myofibroblasts), the “decrease in collagen I synthesis” value is 28%. Further, the “effect on collagen I or III expression” value in assay [2] (1 ng/ml EGF (low concentration)) was “little effect”. In addition, in assay [2] (TIMP-3−/− myofibroblasts), the “decrease in TGF-β1 levels” value was found to be 43%, the “decrease in collagen I expression” value was found to be 47% and the “decrease in collagen III expression” value was determined as 51%. Besides, in assay [2] (WT myofibroblasts), the “decrease in TGF-β1 levels” value was 22%, the “decrease in collagen I expression” value is listed as 38% and the “decrease in collagen III expression” value is reported as 41%.
